Read-outs that look alike come from different tables or passages of the source.
Tests used:
[1] = system: Ae. aegypti eIF4A mutant H161L; settings: for reduction in thermal shift with the mutant compared to the wt protein: Ae. aegypti eIF4A, (GA)5 10mer; for ∆Tm: S3 Table, Ae. aegypti mut.
[2] = system: A. suspensa eIF4A mutant Y160L; settings: S3 Table, A. suspensa mut.
D. melanogaster eIF4A wt = target: T1, D. melanogaster eIF4A wt (Drosophila melanogaster, UniProt Q02748); type: binding; settings: S3 Table
T1 construct: made in house; host or cells: E. coli BL21 (DE3)
T1 sequence (Q02748 whole entry): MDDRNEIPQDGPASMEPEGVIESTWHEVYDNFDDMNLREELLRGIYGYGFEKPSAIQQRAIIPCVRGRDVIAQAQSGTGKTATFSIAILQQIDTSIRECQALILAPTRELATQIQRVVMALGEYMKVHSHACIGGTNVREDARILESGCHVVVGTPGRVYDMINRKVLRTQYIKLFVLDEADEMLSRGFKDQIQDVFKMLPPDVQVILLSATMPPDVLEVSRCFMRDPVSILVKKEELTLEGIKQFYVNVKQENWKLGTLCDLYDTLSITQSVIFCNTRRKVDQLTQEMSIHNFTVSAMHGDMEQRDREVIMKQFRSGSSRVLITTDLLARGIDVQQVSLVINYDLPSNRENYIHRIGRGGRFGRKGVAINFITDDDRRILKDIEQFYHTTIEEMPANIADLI

[3] = target: T2, D. melanogaster eIF4A mutant Y160L (Drosophila melanogaster, UniProt Q02748, Y160L); type: binding; settings: S3 Table, D. melanogaster mut.
T2 construct: made in house; host or cells: E. coli BL21 (DE3)
T2 sequence (Q02748 whole entry Y160L): as the sequence (Q02748 whole entry) above, with Y160L counted along it

RVFV Clone 13 = type: cell-based, Rift Valley fever virus; settings: A549 cells pretreated with 50 nM silvestrol, MOI 0.1, 18 h post-infection, relative to DMSO controls
Aag2 cells = assay: cells; settings: Aedes aegypti, read-out: IC50 (best-fit value, 4PL dose-viability curve)
in vitro [4] = settings: Drosophila melanogaster, CC50, S2 cells, WST-1
A549 cells = settings: 50–100 nM, WST-1
in vitro [5] = settings: Aedes aegypti, CC50, Aag2 cells, WST-1
[6] = system: eIF4A-dependent firefly luciferase translation in Aag2 cells; type: cell-based, Ae. aegypti; settings: t = 48 h
RVFV MP-12 = type: cell-based, Rift Valley fever virus; settings: A549 cells pretreated with 50 nM silvestrol, MOI 0.1, 18 h post-infection, relative to DMSO controls
S2 cells = assay: cells; settings: Drosophila melanogaster, read-out: IC50 (best-fit value, 4PL dose-viability curve)
[7] = system: eIF4A-dependent firefly luciferase translation in S2 cells; type: cell-based, D. melanogaster; settings: t = 24 h
[8] = silvestrol in the sub-CC50 range, vs DMSO and (AC)15 control

SMILES | reduction in thermal shift with the mutant compared to the wt protein [1] | ∆Tm ([1]; RNA oligo (AC)5) [°C] | ∆Tm ([1]; RNA oligo (AG)5) [°C] | ∆Tm ([1]; RNA oligo (GA)5) [°C] | ∆Tm ([1]; RNA oligo (UA)5) [°C] | ∆Tm ([1]; RNA oligo (UC)5) [°C] | ∆Tm ([1]; RNA oligo (UG)5) [°C] | ∆Tm ([2]; RNA oligo (AC)5) [°C] | ∆Tm ([2]; RNA oligo (GA)5) [°C] | ∆Tm ([2]; RNA oligo (UA)5) [°C] | ∆Tm ([2]; RNA oligo (UC)5) [°C] | ∆Tm ([2]; RNA oligo (UG)5) [°C] | ∆Tm (D. melanogaster eIF4A wt; RNA oligo (AC)5) [°C] | ∆Tm (D. melanogaster eIF4A wt; RNA oligo (AG)5) [°C] | ∆Tm (D. melanogaster eIF4A wt; RNA oligo (GA)5) [°C] | ∆Tm (D. melanogaster eIF4A wt; RNA oligo (UA)5) [°C] | ∆Tm (D. melanogaster eIF4A wt; RNA oligo (UC)5) [°C] | ∆Tm (D. melanogaster eIF4A wt; RNA oligo (UG)5) [°C] | ∆Tm ([3]; RNA oligo (AC)5) [°C] | ∆Tm ([3]; RNA oligo (AG)5) [°C] | other results
CONC(=O)C1C(O)C2(O)c3c(OC)cc(OC)cc3OC2(c2ccc(OC)cc2)C1c1ccccc1 (stereo not drawn) [CR-31-B (-)] | ~3 °C | -4.82 | 7.50 | 3.74 | -4.65 | -5.44 | -0.09 | -4.03 | 2.81 | -4.53 | -4.59 | -2.82 | -0.43 | 6.55 | 5.81 | -0.71 | -1.11 | 5.59 | -4.66 | 0.74 | ∆Tm ([3]; RNA oligo (GA)5): 1.88 °C; ∆Tm ([3]; RNA oligo (UA)5): -4.43 °C; ∆Tm ([3]; RNA oligo (UC)5): -4.09 °C; ∆Tm ([3]; RNA oligo (UG)5): -2.27 °C
COC(=O)[C@H]1[C@@H](O)[C@@]2(O)c3c(OC)cc(O[C@@H]4O[C@@H]([C@H](O)CO)CO[C@H]4OC)cc3O[C@@]2(c2ccc(OC)cc2)[C@@H]1c1ccccc1 [silvestrol] | about 5 °C | -5.7 | 7.84 | 3.91 | -5.16 | -5.73 | -0.68 | -4.10 | 3.53 | -4.50 | -4.15 | -3.02 | 1.02 | 9.55 | 9.16 | -0.09 | -0.09 | 7.31 | -1.65 | 1.76 | RVFV L-segment RNA levels (RVFV Clone 13): strong reduction; IC50 (Aag2 cells; 24 h): 36.7 nM; IC50 (Aag2 cells; 48 h): 45.3 nM; CC50 (in vitro [4]; 24 h incubation): 11.5 nM; CC50 (in vitro [4]; 48 h incubation): 7.3 nM; cytotoxicity (A549 cells): No cytotoxicity; CC50 (in vitro [5]; 24 h incubation): 55.6 nM; CC50 (in vitro [5]; 48 h incubation): 49 nM; ∆Tm ([3]; RNA oligo (GA)5): 2.90 °C; ∆Tm ([3]; RNA oligo (UC)5): -3.87 °C; ∆Tm ([3]; RNA oligo (UG)5): -2.05 °C; translation efficiency with the (AC)15 control [6]: already visible at the half CC50 concentration; firefly luciferase activity / translation efficiency with the (AG)15 plasmid [6, 8]: strong reduction; RVFV L-segment RNA levels (RVFV MP-12): strong reduction; IC50 (S2 cells; 24 h): 6.35 nM; IC50 (S2 cells; 48 h): 6.15 nM; translation efficiency with the (AC)15 control ([7]; silvestrol concentrations in the CC50 range): reduction of translation efficiency; firefly luciferase activity / translation efficiency with the (AG)15 plasmid [7, 8]: strong reduction
